Experimental data from patent publication US20120237533A1, “Compositions and Methods for Inducing Apoptosis in Prostate Cancer Cells” (priority 2009, published 2012).

How the values were obtained:
[1] = tested on: Prostate cancer C42 cells; experiment: Apoptosis assays: caspase-3 activity and time lapse video recording; type: cell-based; details: for concentration at which maximal caspase activation is achieved: comparison of PI3K inhibitors
Description: FIG. 6. […] Prostate cancer C42 cells were treated with 10 nM of TGFα-pseudomonas exotoxin chimera (PE) and 500 nM PI3K inhibitor ZSTK474 (ZSTK) or PI3K inhibitor LY294002 (LY) individually and in combination. A) Caspase activity was measured 3 h and 6 h after treatments began; B) Time lapse video-recording of C42 cells treated with 10 nM PE or combination of 10 nM PE and 500 nM ZSTK474. Representative images taken 2, 5, and 14 h after treatments began; C) Caspase activity measured 6 h after cells were treated with increasing concentrations of PE and 25 mcM of LY294002 (LY).
Western blotting—Tumors were excised, homogenized on ice in lysis buffer [10% glycerol, 50 mM PIPES-KOH (pH 7.4), 5 mM EDTA, 1% NP40, 1 mM DTT, protease and phosphatase inhibitors;] centrifuged 10 min 14,000 G to precipitate unsoluble fraction. Soluble fraction was resolved by SDS-PAGE followed by Western blotting on nitrocellulose. Nitrocellulose membranes were probed with antibodies to Akt and phospho-Akt according to manufacturer's instructions; the appropriate secondary antibodies were then applied and positive signals detected by enhanced chemiluminescence. Immunofluorescence—Cells were plated on glass coverslips in 6-well plates and treated and fixed with 10% formalin in PBS (pH 7.4) for 15 min. The cells were then blocked in 2.5% goat serum in PBS-T for 30 min at 37° C. Blocking solution was used to prepare a 1:300 mixture of mouse-J591 anti-PSMA antibodies subsequent procedures were done at room temperature. Incubation with primary antibodies was continued for 3 h. The cells were then washed three times with PBS-T and incubated with a mixture of goat antimouse antibodies conjugated with fluorescein, diluted in blocking solution at a ratio of 1:300 each. One h later, cells were washed with PBS-T, stained with DAPI, and mounted on glass microscope slides. Image analysis was done on a Nikon microscope equipped with a digital camera and software from Inovision (Durham, N.C.). Tumor Implantations—Nude mice (BALB/cAnNCrj-nu from Charles River) received four subcutaneous injections or two intratibial injections of 2×10^6 cells with Matrigel. Injections were made using an insulin syringe and a 27 gauge needle. All manipulations with animals were conducted in humane manner, in strict adherence with a protocol approved by institutional ACUC, which was designed to minimize animal suffering. Luminescence Imaging—Tumor growth was analyzed with a Xenogen IVIS® 100 optical imaging system (Caliper Life Sciences, Hopkinton, Mass.). Animals were immobilized for substrate injection and imaging through an attached gas anesthesia system consisting of 2% isoflurane/O2. To account for background and nonspecific luminescence, mice were imaged before injection of […]. Animals were injected with 100 μl of the firefly luciferase substrate luciferin (3.5 mg/ml in PBS) and imaged 15 minutes later in prone and supine positions (5 minutes each). Whole-body images were obtained using the Living Image® software provided with imaging system. A gray-scale photographic image and the bioluminescent color image are superimposed to provide anatomic registration of the light signal. A region of interest (ROI) was manually selected over the luminescent signal, and the intensity was recorded as photons/second within an ROI. Apoptosis Assays—Apoptosis in whole cell populations was quantified by measuring caspase-3 activity with the fluorogenic substrate Ac-DEVD-7-amido-4-trifluoromethyl-coumarin (Bachem) as specified by the manufacturer. For these experiments, attached and floating cells were collected and lysed in caspase lysis buffer (1% Nonidet P-40, 150 mM NaCl, 20 mM HEPES, 1 mM EDTA, 1 mM dithiothreitol, and 5 μg/ml aprotinin, leupeptin, and pepstatin). Fluorescence was recorded each 15 min for 1 h, and caspase activity was expressed in arbitrary units. […]

[2] = tested on: subcutaneous xenograft tumors; experiment: Luminescence imaging of subcutaneous xenograft tumors injected with LY294002; type: in vivo, mice; details: injections into subcutaneous xenograft tumors, versus DMSO
Excerpt: (§1) FIG. 4A) Representative luminescent images (superimposed on black and white images) of mice injected with solvent (DMSO) or LY294002. Injection site is indicated by arrow. FIG. 4B) Changes in luminescence of subcutaneous xenograft tumors injected with LY294002 or DMSO (error bars show standard deviations between 3 tumors injected with each agent). FIG. 4C) Tissue sections of xenograft tumors. Arrowheads point at apoptotic cells. FIG. 4D) Inhibition of Akt phosphorylation in xenografts injected with LY294002. Western blotting of tumor lysates.
(§2) Western blotting—Tumors were excised, homogenized on ice in lysis buffer [10% glycerol, 50 mM PIPES-KOH (pH 7.4), 5 mM EDTA, 1% NP40, 1 mM DTT, protease and phosphatase inhibitors;] centrifuged 10 min 14,000 G to precipitate unsoluble fraction. […] Nitrocellulose membranes were probed with antibodies to Akt and phospho-Akt according to manufacturer's instructions; the appropriate secondary antibodies were then applied and positive signals detected by enhanced chemiluminescence. […] Luminescence Imaging—Tumor growth was analyzed with a Xenogen IVIS® 100 optical imaging system (Caliper Life Sciences, Hopkinton, Mass.). […] To account for background and nonspecific luminescence, mice were imaged before injection of luciferase. […] Fluorescence was recorded each 15 min for 1 h, and caspase activity was expressed in arbitrary units. […]

PI3K [3] = experiment: Western blotting of tumor lysates for Akt phosphorylation; type: in vivo, mice; details: xenografts injected with LY294002
Excerpt: as §1, §2

PI3K [4] = details: J. Natl. Can. Inst. 2006, 98, 545-556; cited from earlier work

SMILES | concentration at which maximal caspase activation is achieved [1] [µM] | tumor growth (luminescence of xenograft tumors) [2] | PI3K activity (Akt phosphorylation in xenografts) (PI3K [3]) | induction of apoptosis ([1]; 25 μM LY294002 in combination with 10 nM of TGFαPE40 fusion) | induction of apoptosis (caspase activity) ([1]; C42 cells, 25 mcM LY294002 with increasing concentrations of PE, 6 h) | PI3K inhibition relative to LY294002 (PI3K [4]) | induction of apoptosis ([1]; 0.5 μM of ZSTK474 in combination with 10 nM of TGFαPE40 fusion) | induction of apoptosis (caspase activity, time lapse video) ([1]; C42 cells, 500 nM ZSTK474 with 10 nM TGFα-pseudomonas exotoxin chimera (PE), 3 h and 6 h)
Cn1c(=O)n(-c2ccc(C(C)(C)C#N)cc2)c2c3cc(-c4cnc5ccccc5c4)ccc3ncc21 [BEZ235] | 5 |  |  |  |  |  |  | 
O=c1cc(N2CCOCC2)oc2c(-c3ccccc3)cccc12 [LY294002] | 25 | inhibit | inhibit PI3K activity | maximal induction of apoptosis | synergistic induction of apoptosis |  |  | 
FC(F)c1nc2ccccc2n1-c1nc(N2CCOCC2)nc(N2CCOCC2)n1 [ZSTK474] | 0.5 |  |  |  |  | more efficiently than LY294002 | maximal induction of apoptosis | synergistic induction of apoptosis
